pIC50: −log10 of the molar value.
Target: VEGFR2 (KDR) kinase, purified cytoplasmic domain KDR protein (Homo sapiens (Human), UniProt P35968)
Assay: VEGFR2 Kinase Assay
Format: biochemical
Conditions: 2.7 μM ATP, poly-Glu-Tyr (4:1) substrate, 15 minute incubation at 30° C., ELISA read at 492 nm
Description: Biochemical KDR kinase assays were performed in 96 well microliter plates that were coated overnight with 75 μg/well of poly-Glu-Tyr (4:1) in 10 mM Phosphate Buffered Saline (PBS), pH 7.4. The coated plates were washed with 2 mLs per well PBS+0.05% Tween-20 (PBS-T), blocked by incubation with PBS containing 1% BSA, then washed with 2 mLs per well PBS-T prior to starting the reaction. […] Reactions were initiated by the addition 20 ul per well of kinase buffer containing 200-300 ng purified cytoplasmic domain KDR protein (BPS Bioscience, San Diego, Calif.). Following a 15 minute incubation at 30° C., the reactions were washed 2 mLs per well PBS-T. 100 μl of a monoclonal anti-phosphotyrosine antibody-peroxidase conjugate diluted 1:10,000 in PBS-T was added to the wells for 30 minutes. Following a 2 mLs per well wash with PBS-Tween-20, 100 μl of O-Phenylenediamine Dihydrochloride in phosphate-citrate buffer, containing urea hydrogen peroxide, was added to the wells for 7-10 minutes as a colorimetric substrate for the peroxidase. […] IC50 values for compound inhibition were calculated directly from graphs of optical density (arbitrary units) versus compound concentration following subtraction of blank values.

Chain of VEGFR2 (KDR) kinase, purified cytoplasmic domain KDR protein (P35968 786-1356): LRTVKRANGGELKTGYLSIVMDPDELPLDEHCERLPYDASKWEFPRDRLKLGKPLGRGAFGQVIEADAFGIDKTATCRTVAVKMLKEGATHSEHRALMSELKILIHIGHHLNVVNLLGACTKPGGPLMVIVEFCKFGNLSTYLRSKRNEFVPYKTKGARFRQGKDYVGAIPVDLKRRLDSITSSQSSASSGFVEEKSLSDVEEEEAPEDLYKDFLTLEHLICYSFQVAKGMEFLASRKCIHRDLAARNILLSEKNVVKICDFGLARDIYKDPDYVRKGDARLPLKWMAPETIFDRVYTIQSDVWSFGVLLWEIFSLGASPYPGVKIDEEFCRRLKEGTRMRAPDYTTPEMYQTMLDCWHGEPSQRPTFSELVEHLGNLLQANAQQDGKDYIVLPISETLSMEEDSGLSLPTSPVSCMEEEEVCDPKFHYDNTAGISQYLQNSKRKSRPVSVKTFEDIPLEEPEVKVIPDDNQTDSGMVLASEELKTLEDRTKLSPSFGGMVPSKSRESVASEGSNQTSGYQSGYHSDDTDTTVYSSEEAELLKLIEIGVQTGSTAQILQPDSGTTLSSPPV

pIC50	Molecule
< 6.00	CSc1ncc2c(n1)CCN(c1cc(C)cc(C(=O)Nc3cccc(C(F)(F)F)c3)c1)C2 [Example 140, 3-methyl-5-[2-(methylthio)-7,8-dihydropyrido[4,3-d]pyrimidin-6(5H)-yl]-N-[3-(trifluoromethyl)phenyl]benzamide]
< 6.00	CSc1ncc2c(n1)CCN(c1cc(C)cc(C(=O)Nc3cccc(C(C)C)c3)c1)C2 [Example 142, N-(3-isopropylphenyl)-3-methyl-5-[2-(methylthio)-7,8-dihydropyrido[4,3-d]pyrimidin-6(5H)-yl]benzamide]
< 6.00	Cc1ccc(NC(=O)Nc2ccc(N3CCc4ccncc4C3)cc2)cc1 [Example 165, 1-[4-(3,4-dihydro-2,7-naphthyridin-2(1H)-yl)phenyl]-3-(4-methylphenyl)urea]

Molecule	pIC50
4-(2-Methylsulfanyl-5,7-dihydro-pyrrolo[3,4-d]pyrimidin-6-yl)-pyridine-2-carboxylic acid (3-trifluoromethyl-phenyl)-amide [Example 126]	< 5.00

Target: PDGFRβ kinase, purified cytoplasmic domain PDGFR-b protein (Homo sapiens (Human), UniProt P09619)
Assay: PDGFRβ Kinase Assay
Format: biochemical
Conditions: 36 μM ATP, poly-Glu-Tyr (4:1) substrate, 60 minute incubation at 30° C., ELISA read at 492 nm
Description: Biochemical PDGFRβ kinase assays were performed in 96 well microtiter plates that were coated overnight with 75 μg of poly-Glu-Tyr (4:1) in 10 mM Phosphate Buffered Saline (PBS), pH 7.4. The coated plates were washed with 2 mLs per well PBS+0.05% Tween-20 (PBS-T), blocked by incubation with PBS containing 1% BSA, then washed with 2 mLs per well PBS-T prior to starting the reaction. Reactions were carried out in 100 μL reaction volumes containing 36 μM ATP in kinase buffer (50 mM Hepes buffer pH 7.4, 20 mM MgCl2, 0.1 mM MnCl2 and 0.2 mM Na3VO4). Test compounds were reconstituted in 100% DMSO and added to the reaction to give a final DMSO concentration of 5%. Reactions were initiated by the addition 20 ul per well of kinase buffer containing 200-300 ng purified cytoplasmic domain PDGFR-b protein (Millipore). Following a 60 minute incubation at 30° C., the reactions were washed 2 mLs per well PBS-T. 100 μl of a monoclonal anti-phosphotyrosine antibody-peroxidase conjugate diluted 1:10,000 in PBS-T was added to the wells for 30 minutes. Following a 2 mLs per well wash with PBS-Tween-20, 100 μl of O-Phenylenediamine Dihydrochloride in phosphate-citrate buffer, containing urea hydrogen peroxide, was added to the wells for 7-10 minutes as a colorimetric substrate for the peroxidase. The reaction was terminated by the addition of 100 μl of 2.5N H2SO4 to each well and read using a microplate ELISA reader set at 492 nm. IC50 values for compound inhibition were calculated directly from graphs of optical density (arbitrary units) versus compound concentration following subtraction of blank values. […]

Chain of PDGFRβ kinase, purified cytoplasmic domain PDGFR-b protein (P09619 554-1106): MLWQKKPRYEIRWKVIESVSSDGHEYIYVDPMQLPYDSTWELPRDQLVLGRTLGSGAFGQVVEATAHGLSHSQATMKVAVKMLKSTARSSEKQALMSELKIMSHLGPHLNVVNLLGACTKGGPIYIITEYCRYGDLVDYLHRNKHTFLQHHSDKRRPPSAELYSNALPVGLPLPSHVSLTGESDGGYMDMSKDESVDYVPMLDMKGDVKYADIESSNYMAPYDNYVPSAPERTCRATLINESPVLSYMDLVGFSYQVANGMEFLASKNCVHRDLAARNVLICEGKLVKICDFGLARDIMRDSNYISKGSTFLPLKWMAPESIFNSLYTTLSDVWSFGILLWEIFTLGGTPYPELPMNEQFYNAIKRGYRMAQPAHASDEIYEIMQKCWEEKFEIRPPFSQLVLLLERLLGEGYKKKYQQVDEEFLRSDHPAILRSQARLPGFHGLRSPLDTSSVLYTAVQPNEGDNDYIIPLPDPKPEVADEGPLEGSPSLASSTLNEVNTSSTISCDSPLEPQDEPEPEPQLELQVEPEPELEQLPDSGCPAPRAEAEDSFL

Molecule	pIC50
CCCCNC(=O)c1cccc(N2CCc3nc(N)ncc3C2)c1 [Example 16, 3-(2-amino-7,8-dihydropyrido[4,3-d]pyrimidin-6(5H)-yl)-N-butylbenzamide]	< 5.00
CC(C)(C)C1CCC(NC(=O)c2cccc(N3CCc4nc(N)ncc4C3)c2)CC1 (centres unmarked) [Example 17, 3-(2-amino-7,8-dihydropyrido[4,3-d]pyrimidin-6(5H)-yl)-N-(4-tert-butylcyclohexyl)benzamide]	6.61
Nc1ncc2c(n1)CCN(c1cccc(C(=O)Nc3cccc(C(F)(F)F)c3)c1)C2 [Example 5, 3-(2-amino-7,8-dihydropyrido[4,3-d]pyrimidin-6(5H)-yl)-N-[3-(trifluoromethyl)phenyl]benzamide]	7.33
Cc1cccc(NC(=O)c2cccc(N3CCc4nc(N)ncc4C3)n2)c1 [Example 37, 6-(2-amino-7,8-dihydropyrido[4,3-d]pyrimidin-6(5H)-yl)-N-(3-methylphenyl)pyridine-2-carboxamide]	< 5.00
Cc1ccc(NC(=O)c2cccc(N3CCc4nc(N)ncc4C3)c2)cc1 [Example 6, 3-(2-amino-7,8-dihydropyrido[4,3-d]pyrimidin-6(5H)-yl)-N-(4-methylphenyl)benzamide]	7.05
CC(C)(C)c1ccc(NC(=O)c2cccc(N3CCc4nc(N)ncc4C3)c2)cc1 [Example 4, 3-(2-amino-7,8-dihydropyrido[4,3-d]pyrimidin-6(5H)-yl)-N-(4-tert-butylphenyl)benzamide]	6.96
Nc1ncc2c(n1)CCN(c1cccc(C(=O)NCC3CCCCC3)c1)C2 [Example 18, 3-(2-amino-7,8-dihydropyrido[4,3-d]pyrimidin-6(5H)-yl)-N-(cyclohexylmethyl)benzamide]	6.22
CC(C)c1cccc(NC(=O)c2cccc(N3CCc4nc(N)ncc4C3)c2)c1 [Example 2, 3-(2-amino-7,8-dihydropyrido[4,3-d]pyrimidin-6(5H)-yl)-N-(3-isopropylphenyl)benzamide]	7.27
Cc1cccc(NC(=O)c2cccc(N3CCc4nc(N)ncc4C3)c2)c1 [Example 3, 3-(2-amino-7,8-dihydropyrido[4,3-d]pyrimidin-6(5H)-yl)-N-(3-methylphenyl)benzamide]	6.94
Nc1ncc2c(n1)CCN(c1cccc(C(=O)NC3CCCC3)c1)C2 [Example 19, 3-(2-amino-7,8-dihydropyrido[4,3-d]pyrimidin-6(5H)-yl)-N-cyclopentylbenzamide]	< 5.00

The remaining lines, values ahead:

pIC50	Molecule
< 5.00	O=C(Nc1ccccc1)Nc1ccc(N2CCc3ccncc3C2)cc1 [Example 164, 1-[4-(3,4-dihydro-2,7-naphthyridin-2(1H)-yl)phenyl]-3-phenylurea]
5.98	Cc1cccc(NC(=O)Nc2ccc(N3CCc4ccncc4C3)cc2C)c1 [Example 167, 1-[4-(3,4-dihydro-2,7-naphthyridin-2(1H)-yl)-2-methylphenyl]-3-(3-methylphenyl)urea]
< 6.00	Cc1ccc(NC(=O)Nc2ccc(N3CCc4ccncc4C3)cc2)cc1 [Example 165, 1-[4-(3,4-dihydro-2,7-naphthyridin-2(1H)-yl)phenyl]-3-(4-methylphenyl)urea]
7.23	Cc1cc(C(=O)Nc2cccc(C(C)C)c2)cc(N2CCc3nc(N)ncc3C2)c1 [Example 150, 3-(2-amino-7,8-dihydropyrido[4,3-d]pyrimidin-6(5H)-yl)-N-(3-isopropylphenyl)-5-methylbenzamide]
5.81	Cc1cccc(NC(=O)Nc2ccc(N3CCc4ccncc4C3)cc2)c1 [Example 163, 1-[4-(3,4-dihydro-2,7-naphthyridin-2(1H)-yl)phenyl]-3-(3-methylphenyl)urea]
7.52	Cc1ccc(C(=O)Nc2cccc(C(C)C)c2)cc1N1CCc2nc(N)ncc2C1 [Example 149, 3-(2-amino-7,8-dihydropyrido[4,3-d]pyrimidin-6(5H)-yl)-N-(3-isopropylphenyl)-4-methylbenzamide]
7.40	CC(C)c1cccc(NC(=O)c2cccc(N3CCc4ccncc4C3)c2)c1 [Example 168, 3-(3,4-dihydro-2,7-naphthyridin-2(1H)-yl)-N-(3-isopropylphenyl)benzamide]
7.21	Nc1ncc2c(n1)CCN(c1cccc(C(=O)Nc3ccc(F)c(C(F)(F)F)c3)c1)C2 [Example 176, 3-(2-amino-7,8-dihydropyrido[4,3-d]pyrimidin-6(5H)-yl)-N-[4-fluoro-3-(trifluoromethyl)phenyl]benzamide]
7.44	Cc1cccc(NC(=O)Nc2ccc(N3CCc4ccncc4C3)c(C)c2)c1 [Example 166, 1-[4-(3,4-dihydro-2,7-naphthyridin-2(1H)-yl)-3-methylphenyl]-3-(3-methylphenyl)urea]
6.56	Cc1cc(C(=O)Nc2cccc(C(F)(F)F)c2)cc(N2CCc3nc(N)ncc3C2)c1 [Example 148, 3-(2-amino-7,8-dihydropyrido[4,3-d]pyrimidin-6(5H)-yl)-5-methyl-N-[3-(trifluoromethyl)phenyl]benzamide]
7.82	COC(=O)c1cncc2c1CCN(c1cccc(C(=O)Nc3cccc(C(C)C)c3)c1)C2 [Example 169, Methyl 7-(3-{[(3-isopropylphenyl)amino]carbonyl}phenyl)-5,6,7,8-tetrahydro-2,7-naphthyridine-4-carboxylate]
< 5.00	O=C(Nc1ccc(N2CCc3ccncc3C2)cc1)c1cccc(C(F)(F)F)c1 [Example 162, N-[4-(3,4-dihydro-2,7-naphthyridin-2(1H)-yl)phenyl]-3-(trifluoromethyl)benzamide]

Source: US8889870B2, “Kinase inhibitors” (Allergan, Inc., priority 2012, dated 2014)
